Laboratory results published in the NIST ThermoML archive (doi:10.1016/j.jct.2009.01.006).
± gives the expanded uncertainty stated by the source.

Tests used:
[1] = φn = volume fraction of the nth substance listed; conditions: 303.15 K, 101 kPa, Liquid; for speed of sound: Linear variable-path acoustic interferometer
[2] = 303.15 K; for speed of sound: Linear variable-path acoustic interferometer
[3] = refractive index (Na D-line) (dimensionless); conditions: 298.15 K; 101.33 kPa; Liquid; Standard Abbe refractometry
[4] = xn = mol fraction of the nth substance listed; conditions: 303.15 K, 101 kPa, Liquid, Direct dilatometry

CN1CCCC1=O [N-methylpyrrolidone] + CCC(=O)CC
[1], φ1 = 1
Conditions | mass density [kg/m3] | speed of sound [m/s]
– | 1023.4 ± 5.3 | 1552 ± 2

CN1CCCC1=O [N-methylpyrrolidone] + CCCC(C)=O
[1], φ1 = 1
Conditions | mass density [kg/m3] | speed of sound [m/s]
– | 1023.4 ± 5.3 | 1552 ± 2

CN1CCCC1=O [N-methylpyrrolidone] + O=C1CCCCC1
[1], φ1 = 1
Conditions | mass density [kg/m3] | speed of sound [m/s]
– | 1023.4 ± 5.3 | 1552 ± 2

CC(=O)CC(C)C [4-methylpentan-2-one]
[2], Liquid
Conditions | mass density [kg/m3] | speed of sound [m/s]
101 kPa | 791.24 ± 5.2 | 1168 ± 2
101.33 kPa | 791.25 ± 5.2 | 1172 ± 2

Conditions | refractive index
[3] | 1.3935 ± 0.0008

CCC(C)=O [butanone]
[2], Liquid
Conditions | mass density [kg/m3] | speed of sound [m/s]
101 kPa | 794.51 ± 5.2 | 1167 ± 2
101.33 kPa | 794.5 ± 5.2 | 1168 ± 2

Conditions | refractive index
[3] | 1.377 ± 0.0008

CC(=O)CC(C)C [4-methylpentan-2-one] + CN1CCCC1=O
Conditions | excess molar volume [m3/mol] | mass density [kg/m3] | speed of sound [m/s]
[1], φ2 = 0 | – | 791.24 ± 5.2 | 1168 ± 2
[1], φ2 = 0.0946 | – | 814.41 ± 5.2 | 1198 ± 2
[1], φ2 = 0.1879 | – | 836.88 ± 5.2 | 1232 ± 2
[1], φ2 = 0.2615 | – | 854.5 ± 5.2 | 1259 ± 2
[1], φ2 = 0.3961 | – | 886.44 ± 5.2 | 1310 ± 2
[1], φ2 = 0.4444 | – | 897.82 ± 5.2 | 1332 ± 2
[1], φ2 = 0.6087 | – | 936.2 ± 5.2 | 1385 ± 2
[1], φ2 = 0.7236 | – | 962.58 ± 5.2 | 1422 ± 2
[1], φ2 = 0.8232 | – | 985.02 ± 5.2 | 1456 ± 2
[1], φ2 = 0.8989 | – | 1001.74 ± 5.3 | 1491 ± 2
[4], x2 = 0.0682 | -1.09e-07 ± 7e-09 | – | –
[4], x2 = 0.1202 | -1.82e-07 ± 7e-09 | – | –
[4], x2 = 0.2327 | -2.88e-07 ± 7e-09 | – | –
[4], x2 = 0.3164 | -3.49e-07 ± 7e-09 | – | –
[4], x2 = 0.3727 | -3.78e-07 ± 6e-09 | – | –
[4], x2 = 0.4616 | -4.11e-07 ± 6e-09 | – | –
[4], x2 = 0.5111 | -4.22e-07 ± 6e-09 | – | –
[4], x2 = 0.5711 | -4.24e-07 ± 6e-09 | – | –
[4], x2 = 0.6703 | -4.15e-07 ± 6e-09 | – | –
[4], x2 = 0.7739 | -3.58e-07 ± 7e-09 | – | –
[4], x2 = 0.8589 | -2.73e-07 ± 7e-09 | – | –
[4], x2 = 0.9208 | -1.79e-07 ± 7e-09 | – | –
[4], x2 = 0.9675 | -9.3e-08 ± 7e-09 | – | –

CCC(=O)CC [pentan-3-one]
[2], Liquid
Conditions | mass density [kg/m3] | speed of sound [m/s]
101 kPa | 804.57 ± 5.2 | 1198 ± 2
101.33 kPa | 804.62 ± 5.2 | 1201 ± 2

Conditions | refractive index
[3] | 1.3902 ± 0.0008

CN1CCCC1=O [N-methylpyrrolidone]
[2]
Conditions | mass density, 101 kPa [kg/m3] | mass density, 101.33 kPa [kg/m3] | speed of sound, 101.33 kPa [m/s]
Crystal | – | 1023.4 ± 5.3 | –
Liquid | 1023.4 ± 5.3 | – | 1552 ± 2

Conditions | refractive index
[3] | 1.4674 ± 0.0008

O=C1CCCCC1 [cyclohexanone] + CN1CCCC1=O
Conditions | excess molar volume [m3/mol] | mass density [kg/m3] | speed of sound [m/s]
[1], φ2 = 0 | – | 937.58 ± 5.2 | 1386 ± 2
[1], φ2 = 0.1156 | – | 947.92 ± 5.2 | 1392 ± 2
[1], φ2 = 0.2076 | – | 954.74 ± 5.2 | 1402 ± 2
[1], φ2 = 0.3053 | – | 962.9 ± 5.2 | 1415 ± 2
[1], φ2 = 0.4073 | – | 971.45 ± 5.2 | 1426 ± 2
[1], φ2 = 0.4984 | – | 979.17 ± 5.2 | 1438 ± 2
[1], φ2 = 0.5729 | – | 985.58 ± 5.2 | 1454 ± 2
[1], φ2 = 0.7078 | – | 997.22 ± 5.2 | 1480 ± 2
[1], φ2 = 0.7856 | – | 1004.04 ± 5.3 | 1496 ± 2
[1], φ2 = 0.9104 | – | 1015.17 ± 5.3 | 1522 ± 2
[4], x2 = 0.0657 | 2.7e-08 ± 6e-09 | – | –
[4], x2 = 0.1238 | 4.6e-08 ± 6e-09 | – | –
[4], x2 = 0.2207 | 7.1e-08 ± 6e-09 | – | –
[4], x2 = 0.3217 | 9e-08 ± 6e-09 | – | –
[4], x2 = 0.4262 | 1.13e-07 ± 6e-09 | – | –
[4], x2 = 0.5178 | 1.21e-07 ± 6e-09 | – | –
[4], x2 = 0.5918 | 1.18e-07 ± 6e-09 | – | –
[4], x2 = 0.7236 | 1.09e-07 ± 6e-09 | – | –
[4], x2 = 0.7984 | 9.4e-08 ± 6e-09 | – | –
[4], x2 = 0.9166 | 5.2e-08 ± 6e-09 | – | –
[4], x2 = 0.9604 | 3.2e-08 ± 6e-09 | – | –
